Reference: ChEMBL document CHEMBL1121669, “Nucleosides. 114. 5'-O-Glucuronides of 5-fluorouridine and 5-fluorocytidine. Masked precursors of anticancer nucleosides” (1981)

System: P815
Assay: Cytotoxicity against P815 tumor cell line
Format: functional
Settings: Mus musculus, read-out: ID50 (the source's name)

Work on `Nc1nc(=O)n(C2O[C@H](CO[C@@H]3OC(C(=O)[O-])[C@@H](O)[C@H](O)[C@H]3O)[C@@H](O)[C@H]2O)cc1F.[Na+]` (some centres not stated) yielded an IC50 of 6 µg/mL.
In the case of `O=C([O-])C1OC(OC[C@H]2OC(n3cc(F)c(=O)[nH]c3=O)[C@H](O)[C@@H]2O)[C@H](O)[C@@H](O)[C@@H]1O.[Na+]` (some centres not stated), the IC50 is reported as 6 µg/mL.
